According to publication PMC10855164, “Ligand-Based Design of Selective Peptidomimetic uPA and TMPRSS2 Inhibitors with Arg Bioisosteres” (International Journal of Molecular Sciences, 2024):
Where “and” joins values, the source holds several entries; their conditions need not be identical. Identical values can stand only once.

What was measured:
Format in all cases: biochemical
tPA = target: T1, tPA (Homo sapiens, UniProt P00750); test: colorimetric enzyme inhibition assay, tPA (N-methylsulfonyl-D-Phe-Gly-Arg-pNA); conditions: from IC50 by Cheng-Prusoff; n.a. = not active, <80% inhibition at 20 µM
T1 construct: purchased Sigma Aldrich
Protocol: (§1) The inhibitory activity of the synthesized compounds towards the respective main- and off-target proteases was measured via fluorometric and colorimetric assays. Thus, fluorogenic AMC- or colorimetric pNA-based substrates with a peptide sequence suitable for the tested protease were utilized (see Supplementary Figure S2). At first, the compounds were screened against […] proteases (uPA, TMPRSS2, matriptase, tPA, thrombin, factor Xa) at 20 µM, and a cut-off value of 80% inhibition at this concentration was set, for the differentiation between nonactive (n.a.) and active inhibitors. Due to the reversible inhibition mechanism of the ketobenzothiazole derivates, the IC50 values were determined with Graphpad Prism 9, and afterwards converted to the corresponding Ki values for an adequate comparison between the inhibitory activities of the compounds toward all tested proteases. The Ki values were calculated using the Cheng–Prusoff equation [43].
(§2) Fluorometric inhibition assays
(§3) The inhibitory activities of the compounds against the proteases were determined by enzyme inhibition assays with fluorogenic or colorimetry-based substrates. The fluorescence, caused by cleaved AMC from the fluorogenic substrates (uPA, matriptase, TMPRSS2, thrombin), was measured in white flat-bottom 96-well plates from Greiner Bio-One using a Tecan Infinite F200 Pro plate reader. The absorption, caused by cleaved pNA from colorimetric substrates (factor Xa and tPA), was measured in transparent flat-bottom 96-well plates from Greiner Bio-One using a Tecan Spark 10M plate reader. All measurements with the main-target proteases (uPA and TMRPSS2) were performed as triplicates and with the off-target proteases (matriptase, factor Xa, tPA, thrombin) as duplicates. The substrates and the compounds were prepared as stock solutions in DMSO. Each well contained a total volume of 200 µL, consisting of 185 µL buffer, 5 µL inhibitor in DMSO or pure DMSO as negative control, 5 µL substrate in DMSO and 5 µL enzyme solution in buffer. Dilution series were prepared for the determination of the inhibition constants. The fluorescence signal and absorbance were measured every 30 s for 10 min at 25 or 37 °C with the corresponding excitation/emission (λex = 380 nm / λem = 460 nm) and absorbance (λabs = 405 nm) wavelengths, depending on the targeted protease. IC50 values for the reversible inhibitors were calculated with Graphpad Prism 9 by fitting the remaining enzymatic activity to the four parameter IC50 equation with Y [%] as the residual enzyme activity , Ymax as the maximum value of the dose response curve at inhibitor concentrations [I] = 0 µM, Ymin as the minimum value at high inhibitor concentrations and s as the hill coefficient.[1] The fluorescence progress curves and sigmoidal dose-response curve for inhibition of uPa by compound 38 is shown exemplary in Figure S2. […]
(§4) Due to the dependence of the IC50 value on the substrate affinity and concentration, the Ki values were calculated with the Cheng-Prusoff equation, using the final substrate concentration [S] and the Michaelis-Menten constant KM, (2) for appropriate comparison of the inhibitory activities to the other enzymes and inhibitors.[1]
(§5) KM values were determined by fitting to the Michaelis-Menten equation using Graphpad Prism 9 with v [ΔF/min] as the substrate hydrolysis rate, vmax as the maximum slope of the dose-response curve, and the substrate [S] concentration.[1] The different substrates were serially diluted in DMSO. […]

uPA = target: T2, uPA (Homo sapiens, UniProt P00749); test: fluorometric enzyme inhibition assay, uPA (Z-Gly-Gly-Arg-AMC); conditions: for Ki uPA / Ki: from IC50 by Cheng-Prusoff, n.a. = not active, <80% inhibition at 20 µM; for Selectivity index [SI] uPA: quotient Ki uPA / Ki TMPRSS2
T2 construct: purchased Sigma Aldrich
Protocol: as §1, §2
The inhibitory activities of the compounds against the proteases were determined by enzyme inhibition assays with fluorogenic or colorimetry-based substrates. The fluorescence, caused by cleaved AMC from the fluorogenic substrates (uPA, matriptase, TMPRSS2, thrombin), was measured in white flat-bottom 96-well plates from Greiner Bio-One using a Tecan Infinite F200 Pro plate reader. The absorption, caused by cleaved pNA from colorimetric substrates (factor Xa and tPA), was measured in transparent flat-bottom 96-well plates from Greiner Bio-One using a Tecan Spark 10M plate reader. All measurements with the main-target proteases (uPA and TMRPSS2) were performed as triplicates and with the off-target proteases (matriptase, factor Xa, tPA, thrombin) as duplicates. The substrates and the compounds were prepared as stock solutions in DMSO. Each well contained a total volume of 200 µL, consisting of 185 µL buffer, 5 µL inhibitor in DMSO or pure DMSO as negative control, 5 µL substrate in DMSO and 5 µL enzyme solution in buffer. Dilution series were prepared for the determination of the inhibition constants. The fluorescence signal and absorbance were measured every 30 s for 10 min at 25 or 37 °C with the corresponding excitation/emission (λex = 380 nm / λem = 460 nm) and absorbance (λabs = 405 nm) wavelengths, depending on the targeted protease. IC50 values for the reversible inhibitors were calculated with Graphpad Prism 9 by fitting the remaining enzymatic activity to the four parameter IC50 equation with Y [%] as the residual enzyme activity , Ymax as the maximum value of the dose response curve at inhibitor concentrations [I] = 0 µM, Ymin as the minimum value at high inhibitor concentrations and s as the hill coefficient.[1] The fluorescence progress curves and sigmoidal dose-response curve for inhibition of uPa by compound 38 is shown exemplary in Figure S2.
Figure S2: (left) Fluorescence progress curves for inhibition of uPa by cpd. 38. (right) Plot showing the respective IC50 value […]
as §4
as §5, with “DMSO. The measurement was done in analogy to the determination of the inhibitory activity, but with 5 µL pure DMSO instead of inhibitor solution. The fluorescence progress curves and Michaelis-Menten curve of the specific substrate of uPA is shown exemplarily” for “DMSO.”
Figure S3: (left) Fluorescence progress curves of cleavage of Z-Gly-Gly-Arg-AMC by uPA. (right) Michaelis-Menten curve […]

factor Xa = target: T3, factor Xa (Homo sapiens, UniProt P00742); test: colorimetric enzyme inhibition assay, factor Xa (Z-D-Arg-Gly-Arg-pNA); conditions: from IC50 by Cheng-Prusoff; n.a. = not active, <80% inhibition at 20 µM
T3 construct: purchased Bio-techne
Protocol: as §1, §2, §3, §4
as §5, with “DMSO. The measurement was done in analogy to the determination of the inhibitory activity, but with 5 µL pure DMSO instead of inhibitor solution.” for “DMSO.”
(§6) The following buffers and substrates were used for the respective assays: uPA (50 mM Tris HCl pH = 7.9, 150 mM […]
(§7) TMPRSS2 (25 mM Tris HCl pH = 8.0, 150 mM NaCl, 5 mM CaCl2, 0.001% TX-100, 100 µM Boc-Gln-Ala-Arg-AMC (KM: 68.63 ± 6.64 µM), 25 °C, 3 nM TMPRSS2)[3]; matriptase (50 mM Tris HCl pH = 8.0, 150 mM NaCl, 5 mM CaCl2, […]

TMPRSS2 = target: T4, TMPRSS2 (Homo sapiens, UniProt O15393); test: fluorometric enzyme inhibition assay, TMPRSS2 (Boc-Gln-Ala-Arg-AMC); conditions: for Ki TMPRSS2 / Ki: from IC50 by Cheng-Prusoff, n.a. = not active, <80% inhibition at 20 µM
T4 construct: purchased Cusabio
Protocol: as §1, §2, §3, §4
as §5, with “DMSO. The measurement was done in analogy to the determination of the inhibitory activity, but with 5 µL pure DMSO instead of inhibitor solution.” for “DMSO.”
as §6, §7

matriptase = target: T5, matriptase (Homo sapiens, UniProt Q9Y5Y6); test: fluorometric enzyme inhibition assay, matriptase (Boc-Leu-Arg-Arg-AMC); conditions: for Ki Matriptase / Ki: from IC50 by Cheng-Prusoff, n.a. = not active, <80% inhibition at 20 µM
T5 construct: catalytic domain of matriptase (uniport: Q9Y5Y6 aa 596–855); hexa-histidine (N); made in house; host or cells: Escherichia coli BL21 Gold (DE3)
T5 sequence (Q9Y5Y6 596-855): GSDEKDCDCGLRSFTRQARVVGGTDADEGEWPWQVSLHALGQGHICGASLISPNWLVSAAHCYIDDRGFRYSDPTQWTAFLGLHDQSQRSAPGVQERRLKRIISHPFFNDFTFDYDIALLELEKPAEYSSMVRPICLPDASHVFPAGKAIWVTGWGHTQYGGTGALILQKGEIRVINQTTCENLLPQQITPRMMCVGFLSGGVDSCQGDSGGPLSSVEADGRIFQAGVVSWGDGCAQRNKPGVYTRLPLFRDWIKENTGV
Protocol: as §1, §2, §3, §4
as §5, with “DMSO. The measurement was done in analogy to the determination of the inhibitory activity, but with 5 µL pure DMSO instead of inhibitor solution.” for “DMSO.”
as §6, §7

thrombin = target: T6, thrombin (Homo sapiens, UniProt P00734); test: fluorometric enzyme inhibition assay, thrombin (Z-Gly-Gly-Arg-AMC); conditions: from IC50 by Cheng-Prusoff; n.a. = not active, <80% inhibition at 20 µM
T6 construct: purchased Bio-techne
Protocol: as §1, §2, §3, §4
as §5, with “DMSO. The measurement was done in analogy to the determination of the inhibitory activity, but with 5 µL pure DMSO instead of inhibitor solution.” for “DMSO.”
as §6, §7

[1] = quotient Ki matriptase / Ki TMPRSS2

T3 sequence (P00742 235-488 limits assumed): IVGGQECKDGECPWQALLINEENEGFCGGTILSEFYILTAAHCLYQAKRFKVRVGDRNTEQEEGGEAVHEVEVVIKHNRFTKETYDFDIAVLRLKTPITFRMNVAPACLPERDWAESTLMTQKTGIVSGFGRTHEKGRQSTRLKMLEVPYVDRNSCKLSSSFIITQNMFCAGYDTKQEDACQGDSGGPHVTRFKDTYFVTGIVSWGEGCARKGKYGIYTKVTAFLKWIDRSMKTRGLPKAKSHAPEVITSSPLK
T3 sequence (P00742 41-179 partner limits assumed): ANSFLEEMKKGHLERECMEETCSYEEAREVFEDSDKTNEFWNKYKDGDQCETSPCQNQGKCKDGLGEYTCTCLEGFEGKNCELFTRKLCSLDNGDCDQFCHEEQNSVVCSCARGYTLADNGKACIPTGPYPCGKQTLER
T1 sequence (P00750 36-562): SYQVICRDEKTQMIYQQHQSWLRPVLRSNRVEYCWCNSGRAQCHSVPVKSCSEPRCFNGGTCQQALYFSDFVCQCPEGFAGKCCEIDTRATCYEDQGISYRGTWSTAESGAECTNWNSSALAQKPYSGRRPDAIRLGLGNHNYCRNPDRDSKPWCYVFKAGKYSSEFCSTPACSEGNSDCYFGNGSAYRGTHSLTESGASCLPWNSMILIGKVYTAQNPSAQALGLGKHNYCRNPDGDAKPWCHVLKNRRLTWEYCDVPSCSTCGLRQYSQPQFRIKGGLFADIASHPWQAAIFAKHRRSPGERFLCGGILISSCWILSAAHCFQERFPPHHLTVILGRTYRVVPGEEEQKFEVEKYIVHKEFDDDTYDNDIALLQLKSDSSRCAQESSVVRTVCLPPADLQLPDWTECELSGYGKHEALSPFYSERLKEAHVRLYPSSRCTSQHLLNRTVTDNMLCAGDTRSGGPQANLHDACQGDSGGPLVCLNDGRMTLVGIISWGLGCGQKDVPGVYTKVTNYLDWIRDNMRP
T4 sequence (O15393 whole entry): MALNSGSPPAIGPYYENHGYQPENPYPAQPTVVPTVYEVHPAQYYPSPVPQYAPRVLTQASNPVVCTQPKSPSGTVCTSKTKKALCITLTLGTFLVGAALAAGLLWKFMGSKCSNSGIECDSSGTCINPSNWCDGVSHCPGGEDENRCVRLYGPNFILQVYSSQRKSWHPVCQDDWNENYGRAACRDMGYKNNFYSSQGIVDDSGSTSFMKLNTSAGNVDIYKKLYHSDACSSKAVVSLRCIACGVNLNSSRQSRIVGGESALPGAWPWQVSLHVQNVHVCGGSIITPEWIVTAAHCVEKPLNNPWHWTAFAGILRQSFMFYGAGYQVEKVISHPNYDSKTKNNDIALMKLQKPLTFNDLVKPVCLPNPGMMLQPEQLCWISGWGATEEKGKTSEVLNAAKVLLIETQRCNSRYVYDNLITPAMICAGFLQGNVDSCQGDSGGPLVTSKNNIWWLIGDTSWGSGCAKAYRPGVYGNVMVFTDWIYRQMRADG

Row | SMILES | Ki tPA (tPA) | Ki uPA (uPA) | Ki Factor Xa (factor Xa) | Ki TMPRSS2 (TMPRSS2) | Ki Matriptase (matriptase) | Ki Thrombin (thrombin) | Ki (uPA) | Ki (TMPRSS2) | Selectivity index [SI] TMPRSS2 (TMPRSS2; quotient Ki TMPRSS2 / Ki uPA) | Ki (matriptase) | Selectivity index [SI] Matriptase (matriptase; quotient Ki matriptase / Ki uPA) | Selectivity index [SI] uPA (uPA) | Selectivity index [SI] Matriptase (matriptase; [1])
1 | CC(=O)NCC(=O)NC(C(=O)NC(C)C(=O)NC(CCCCNC(=N)N)C(=O)c1nc2ccccc2s1)C(C)O (stereo not shown) [Compound 20] | did not show inhibition | did not show inhibition | did not show inhibition | did not show inhibition | did not show inhibition | did not show inhibition | – | – | – | – | – | – | –
2 | CC(=O)NCC(=O)NC(C(=O)NC(C)C(=O)NC(Cc1ccc(NC(=N)N)cc1)C(=O)c1nc2ccccc2s1)C(C)O (stereo not shown) [Compound 29] | did not inhibit | – | did not inhibit | – | – | did not inhibit | 0.029 ± 0.002 µM | 0.01 ± 0.004 µM | 0.3 | 0.132 µM and 0.133 µM | 4 | – | –
3 | CC(=O)N[C@@H](CC(N)=O)C(=O)N1CCC[C@H]1C(=O)N[C@@H](Cc1ccc(NC(=N)N)cc1)C(=O)c1nc2ccccc2s1 [Compound 30] | – | – | – | – | – | – | 0.479 ± 0.017 µM | 0.005 ± 0.001 µM | – | 0.06 ± 0.008 µM | – | 96 | 12
4 | CC(=O)N[C@@H](CC(N)=O)C(=O)N[C@@H](Cc1ccccc1)C(=O)N[C@@H](Cc1ccc(NC(=N)N)cc1)C(=O)c1nc2ccccc2s1 [Compound 31] | – | – | – | – | – | – | 3.57 ± 0.421 µM | 0.0004 ± 0.0001 µM | – | 0.252 ± 0.067 µM | – | > 5000 | 630
5 | CC(=O)N[C@@H](CC(N)=O)C(=O)N[C@@H](CC1CCCCC1)C(=O)N[C@@H](Cc1ccc(NC(=N)N)cc1)C(=O)c1nc2ccccc2s1 [Compound 32] | – | – | – | – | – | – | 2.69 ± 0.217 µM | 0.034 ± 0.004 µM | – | 3.33 ± 1.14 µM | – | 79 | 98
6 | CC(=O)N[C@@H](CC(N)=O)C(=O)N1CCC[C@H]1C(=O)N[C@@H](CC1CCC(NC(=N)N)CC1)C(=O)c1nc2ccccc2s1 (stereo partly shown) [Compound 39] | – | – | – | – | – | – | 0.936 ± 0.1 µM | 0.044 ± 0.007 µM | – | 1.2 ± 0.181 µM | – | 21 | 27
7 | CC(=O)NCC(=O)N[C@H](C(=O)N[C@@H](C)C(=O)N[C@@H](Cc1cccc(NC(=N)N)c1)C(=O)c1nc2ccccc2s1)[C@H](C)O [Compound 45] | did not show inhibition | did not show inhibition | did not show inhibition | did not show inhibition | did not show inhibition | did not show inhibition | – | – | – | – | – | – | –
